Experimental data taken from patent US10201519B2, “Stabilized pediatric suspension of carisbamate” (SK BIOPHARMACEUTICALS CO., LTD., priority 2007, dated 2019).

Experiment: solubility of carisbamate in water
Type: physicochemical
Conditions: described as slightly soluble
Procedure: Carisbamate has been problematic to formulate in an aqueous suspension because it is slightly soluble in water, i.e., more than 2 mg/ml, so that temperature changes can cause the carisbamate particles to dissolve in the aqueous suspension medium and then re-crystallize out on the remaining carisbamate crystals and change the size of the resulting crystals or re crystallize in a different polymorphic form. This change in crystal size or polymorphic form, e.g., from Form A to Form B, can cause an undesirable change in bioavailability of the suspension. The present invention is based in part on the discovery that the addition of hypromellose (hydroxypropyl methyl cellulose or HPMC) in the proper concentration will prevent or stabilize this crystal growth and therefore serve to stabilize the suspension maintaining bioavailability and improving shelf life of the product.

With `NC(=O)OC[C@@H](O)c1ccccc1Cl` [Carisbamate, S-(2-(2-chlorophenyl)-2-hydroxyethyl) oxocarboxamide] the solubility was > 2000 µg/mL.
